pIC50: −log10 of the molar value.
Legend:
[1] = Maximum tolerated dose of cDDP in the nude mouse xenograft system; format: in vivo; settings: nude mice, i.p.
Experimental: The various aspects of the invention are also useful for xenografted tumors. Nude mice were inoculated s.c. with human UMSCC10b tumor cells, and then treated with cDDP (0, 10, 15, 30 or 50 mg/kg cDDP i.p.) when the tumors reached 1 ml in volume. FIG. 5a depicts the results obtained when tumors were harvested at 24 h after cDDP treatment. […] The time course of the change in message level in the xenografts was similar to that observed with in vitro exposure of the cells (FIG. 5b). Thus, GADD153 mRNA levels can be increased in vivo by cDDP doses around the maximum tolerated dose in this system (15-20 mg/kg cDDP).

[2] = test system: stage IV head and neck cancer; experiment: Tumor clinical response of patients to cDDP-based treatment; format: in vivo, human; settings: i.a. cDDP with i.v. sodium thiosulfate, with or without radiation therapy
Experimental: Thirty-two patients with previously untreated stage IV head and neck cancer were treated at the UCSD Cancer Center on a phase I/II experimental protocol. All patients had been considered to have unresectable tumors. All patients received i.a. cDDP (150-200 mg/M^2) and i.v. sodium thiosulfate infusion concurrently. The details of this treatment program have been published elsewhere by the present inventors (17,18), which description is specifically incorporated herein by reference. cDDP was dissolved in 400 ml of 0.9% saline and infused over 3-5 minutes through a microcatheter placed angiographically to selectively encompass the dominant blood supply of the targeted tumor. Simultaneous with the cDDP infusion, sodium thiosulfate was infused i.v. at a dose of 9 g/m^2 dissolved in 300 ml of distilled water over 3 minutes, followed by 12 g/m^2 dissolved in one liter of distilled water over 6 h by continuous infusion to prevent severe nephrotoxicity. Treatment was repeated weekly for a total of 4 doses. In addition, 17 of the 32 patients received radiotherapy in doses of […] (×35 fractions) starting concurrently with the start of cDDP treatment. Needle aspiration or small cutting needle biopsies were obtained just before and at 24 h following the first dose of cDDP. Tumor response was assessed at 2 months using criteria based on physical examination, repeat computed tomography/magnetic resonance imaging studies, and repeat endoscopy and biopsy.

UMSCC10b cells = experiment: Sensitivity to cDDP in vitro, clonogenic assay; format: cell-based, human; settings: parental cell line, 1 h exposure
Experimental: (§1) The sensitivity of the UMSCC10b cell line and its cDDP-resistant variants to cDDP was determined by clonogenic assay using a 1 h cDDP exposure. A single-cell suspension was plated into 60 mm tissue culture dishes (Corning) at 300 cells per dish in fresh medium. After incubation for 24 h at 37° C., cells had attached to the plates and cDDP was added to the cells and incubated for 1 h following which the cells were washed twice with phosphate-buffered saline and 5 ml of fresh medium was added. Cultures were incubated for an additional 13-15 days following which there were fixed with methanol, stained with Giemsa, and clusters of >50 cells were scored as colonies. cDDP-selected cells were cultured in drug-free media for 2 weeks before cDDP sensitivity was determined by clonogenic assay.

UMSCC10b-Pt/S6 = experiment: Sensitivity to cDDP in vitro, clonogenic assay; format: cell-based, human; settings: subline UMSCC10b-Pt/S6
Experimental: as §1, with “UMSCC10b cells were selected for cDDP resistance by chronic exposure to cDDP which was supplied by (Bristol-Meyers-Squibb, Princeton, N.Y.). The first three selections were performed at a concentration of 0.5 μM which allowed approximately 10^7 cells to grow to confluence in a 150 cm^2 flask within one week. For every following set of 3 selections, the cDDP concentration was increased by approximately 20% (15,16). The” for “The”

UMSCC10b-Pt/S15 = experiment: Sensitivity to cDDP in vitro, clonogenic assay; format: cell-based, human; settings: subline UMSCC10b-Pt/S15
Experimental: as §1, with “UMSCC10b cells were selected for cDDP resistance by chronic exposure to cDDP which was supplied by (Bristol-Meyers-Squibb, Princeton, N.Y.). The first three selections were performed at a concentration of 0.5 μM which allowed approximately 10^7 cells to grow to confluence in a 150 cm^2 flask within one week. For every following set of 3 selections, the cDDP concentration was increased by approximately 20% (15,16). The” for “The”

## [NH2][Pt]([NH2])([Cl])[Cl] [cDDP, cisplatin]
[1]
  maximum tolerated dose: 15 to 20 mg/kg
[2]; assessed at 2 months
  patients who achieved a partial regression (PR): 8 of the 32
  patients who attained a complete regression of the tumor (CR): 17 of the 32
[2]; of 32 patients
  patients who had tumor progression (NR): 7 patients
UMSCC10b cells
  IC10: 2 µM
  pIC50: 5.15
  IC70: 12 µM
UMSCC10b-Pt/S6
  cDDP resistance relative to parental cells: 3 fold
UMSCC10b-Pt/S15
  cDDP resistance relative to parental cells: 6 fold

Source: patent US6447997B1, “Gene coding for GADD153 as a clinical diagnostic and prognostic in cancer therapy” (Research Development Foundation, priority 1997, dated 2002)
